As usually defined, the AC50 is the midpoint of the concentration-response curve, whichever way the signal moves.

Calls of active or inactive are those of the source.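 Rule for the calls: active = more than half of replicate measurements showing over 20% loss of kinase signal relative to plate controls; inconclusive = some but at most half of replicates over 20% loss; inactive = no replicate over 20% signal loss.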

The assay deals with Glycogen synthase kinase-3 alpha (Homo sapiens) (UniProt P49840). The experiment in a line: concentration-response blocking of human GSK3A – biochemical, luminescence, cell-free homogeneous, retest, dose response (AID 463203). Conditions: GSK-3 alpha enzyme, ADP-Glo luminescence, 60 min. (In ADP-Glo the light output rises with the ADP produced.)
Sequence of Glycogen synthase kinase-3 alpha (Homo sapiens) (P49840 whole entry, looked up): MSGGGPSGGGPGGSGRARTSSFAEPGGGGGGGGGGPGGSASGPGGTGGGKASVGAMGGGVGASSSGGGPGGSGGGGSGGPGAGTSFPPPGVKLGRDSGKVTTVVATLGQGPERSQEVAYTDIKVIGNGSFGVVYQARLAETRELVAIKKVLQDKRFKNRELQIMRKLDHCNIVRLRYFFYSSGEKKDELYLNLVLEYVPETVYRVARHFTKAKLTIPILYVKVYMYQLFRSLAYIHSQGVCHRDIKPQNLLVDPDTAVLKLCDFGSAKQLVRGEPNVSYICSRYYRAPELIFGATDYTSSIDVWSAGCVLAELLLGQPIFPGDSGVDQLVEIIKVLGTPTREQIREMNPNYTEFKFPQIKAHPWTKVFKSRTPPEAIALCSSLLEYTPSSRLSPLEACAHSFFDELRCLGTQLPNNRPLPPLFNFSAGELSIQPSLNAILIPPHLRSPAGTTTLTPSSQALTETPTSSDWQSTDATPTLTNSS
Regarding `COc1ccc(C2C3(C#N)C(N)=NC(OC)(OC)C23C#N)cc1` (stereo unspecified), the AC50 is > 30 µM (inactive).
As for `COc1ccc(-c2noc(CSc3nc(-c4ccccc4)cc(=O)[nH]3)n2)cc1`, the figure is > 30 µM (inactive); as for `O=c1[nH]c(=S)n(Cc2ccc(F)cc2)c(O)c1C=NCCCn1ccnc1`, > 30 µM (inactive).
Turning to `NS(=O)(=O)c1ccc(Nc2nc(-c3ccc(F)cc3)cs2)cc1`, the AC50 was 26.2 µM.
As for `C[C@H](CO)N1C[C@H](C)[C@@H](CN(C)S(=O)(=O)c2ccc(F)cc2)Oc2c(NC(=O)Nc3ccccc3)cccc2C1=O`, the figure is > 30 µM (inactive).
Next, `COc1ccccc1NC(=O)CSc1ccc2nnc(-c3ccc(C)cc3)n2n1`: 19.2 µM; `CCC(=O)N1CCN(c2cc(NCC3CCCO3)c(F)cc2[N+](=O)[O-])CC1` (stereo unspecified): 21.7 µM; `COc1cc(O)cc2c1C(=O)OC(C)CCCC(=O)CCC/C=C\2` (stereo unspecified): > 30 µM (inactive).
As for `COc1cc(/C=N\NC(=O)c2ccc(-c3ccccc3)cc2)cc(Br)c1O`, the figure is > 30 µM (inactive); as for `O=C(c1ccc(Cl)cc1)c1cnc(Nc2ccccc2Cl)s1`, > 30 µM (inactive).
Turning to `Cc1nc(SCC(=O)NCC2CCCO2)c2c(C)c(C)sc2n1` (stereo unspecified), the AC50 is > 30 µM (inactive).
For `O=C(Nc1cccc(F)c1)C1CCCN1S(=O)(=O)c1cccc2cccnc12` (stereo unspecified), the AC50 is 11.8 µM.
As for `O=C(O)CCSc1nnc(-c2ccncc2)n1-c1ccccc1`, the figure is > 30 µM (inactive); as for `CCOC(=O)c1oc2ccc3c(c2c1C)C(=O)CC1(CCN(C(=O)OCC)CC1)O3`, > 30 µM (inactive).
As to `COC(=O)c1ccc2c(=O)[nH]c(COC(=O)c3cccc(S(=O)(=O)N4CCOCC4)c3)nc2c1`, the AC50 is 6.88 µM.
As for `Cc1cc(=O)[nH]c2c(C)c(Cl)ccc12`, the figure is > 30 µM (inactive).
`COc1ccccc1Nc1nc2c(s1)CCC2`: the AC50 was > 30 µM (inactive).
As for `COc1c(-c2ccc(O)cc2)oc2cc(O)cc(O)c2c1=O`, the figure is 6.97 µM.
Next, `CCCCCCCNc1nc(Cl)nc(NCCO)n1`: > 30 µM (inactive).
Consider `COc1ccccc1C(=O)NNC(=O)c1cccc(F)c1`, for which the AC50 is > 30 µM (inactive).
With `COc1cc2c(C#N)c(N3CCCCC3)nc(N)c2c(N)n1`, the AC50 was 13.4 µM.
For `COc1ccc2nc(C)cc(N3CCN(S(=O)(=O)c4ccccc4F)CC3)c2c1`, the half-maximal activity concentration (AC50) was 8.27 µM.
On to `CC1=C(C(=O)OC(C)C)C(c2cccs2)n2ncnc2N1` (stereo unspecified), for which the AC50 is 28.8 µM.
Consider `Cc1csc(NC(=O)C2CC(=O)N(c3ccc(C)c(C)c3)C2)n1` (stereo unspecified), for which the AC50 is > 30 µM (inactive).
Next, `COc1ccc(CCNC(=O)c2nnn(-c3ccccc3OC)c2N)cc1OC`: 14.8 µM; `COc1cccc(C2CC(=O)N3CN(c4ccccc4F)CSC3=C2C#N)c1` (stereo unspecified): > 30 µM (inactive).
Consider `Cc1cccc(C)c1OC(=O)Cc1ccccc1[N+](=O)[O-]`, for which the AC50 was > 30 µM (inactive).
In the case of `COc1ccc2[nH]c(=O)c3c(c2c1)OC(C)(C)C=C3`, the AC50 is 10.4 µM.
Next, `COCc1nnc(NC(=O)CCCCCN2C(=O)c3ccccc3C2=O)s1`: > 30 µM (inactive); `CCCCN(CC)C(=O)c1oc2ccc(S(=O)(=O)N3CCCC3)cc2c1C`: > 30 µM (inactive).
As for `N#C/C(=N\Nc1ccccc1)C(N)=S`, the figure is > 30 µM (inactive); as for `O=C(NCCc1csc(-c2ccccc2)n1)c1ccc(Br)o1`, 17.4 µM.
`CCOc1ccc2ncc(S(=O)(=O)c3ccccc3)c(N3CCN(c4ccc(OC)cc4)CC3)c2c1`: the AC50 is > 30 µM (inactive).
For the compound `O=C(O)Cn1c(=O)c2c3c(sc2n(Cc2ccc(F)cc2)c1=O)CCCC3`, the AC50 was > 30 µM (inactive).
As for `CC(=O)N1CCc2c(sc(NC(=O)c3cccc(N4C(=O)CCC4=O)c3)c2C(N)=O)C1`, the figure is > 30 µM (inactive); as for `COc1cc(C(=O)NCC(=O)N/N=C\C(C)=C/c2ccccc2)cc(OC)c1OC`, > 30 µM (inactive).
Next, `Brc1cccc(CSc2nnc(-c3ccncc3)o2)c1`: 7.58 µM.
As for `CCN1CCN(c2nc(Nc3ccc(C)c(C)c3)nc(N)c2[N+](=O)[O-])CC1`, the figure is > 30 µM (inactive).
For the compound `N#C/C(=N\Nc1ccc(Cl)cc1)C(N)=S`, the AC50 was > 30 µM (inactive).
As for `O=c1[nH]nnc2sc3c(c12)CCCC3`, the figure is > 30 µM (inactive); as for `CCCCc1ccc(NC(=O)N[C@H](C(=O)O)C(C)CC)cc1` (stereo partly specified), > 30 µM (inactive).
As for `CCCCOC(=O)Nc1nnc(COc2ccccc2)s1`, the figure is > 30 µM (inactive); as for `COc1ccccc1N=c1oc2c(OC)cccc2cc1C(=O)NCc1ccco1`, > 30 µM (inactive); as for `Cc1ccc(-c2c3c(=O)n(C)c(=O)n(C)c3cn2Cc2ccccn2)cc1`, > 30 µM (inactive).
In the case of `O=C1NC(=Nc2ccccc2Cl)S/C1=C\c1cccc([N+](=O)[O-])c1O`, the AC50 is 24 µM.
As for `COc1cc(/C=N/NC(=O)c2ccc(COc3ccccc3Cl)o2)cc(Br)c1O`, the figure is > 30 µM (inactive).
Regarding `COc1cc(C2CC(=O)N3CN(Cc4ccccc4)CSC3=C2C#N)ccc1OCc1ccccc1` (stereo unspecified), the AC50 is > 30 µM (inactive).
Regarding `O=C(CSc1n[nH]c(=O)n1-c1ccc2c(c1)OCCO2)Nc1ccccc1`, the AC50 was > 30 µM (inactive).
On to `O=C(CNC(=O)c1ccccc1)N/N=C/C=C/c1ccccc1`, for which the AC50 was > 30 µM (inactive).
Next, `O=C(CSc1nc2[nH]ncc2c(=O)n1-c1ccccc1)NCCc1ccccc1`: 8.62 µM.
As for `CC1(C)CC(=O)C(C=NCCc2ccc(O)cc2)=C(O)C1`, the figure is > 30 µM (inactive); as for `O=C1c2cnc3ncnn3c2CC2c3ccccc3CCN12` (stereo unspecified), > 30 µM (inactive).
For the compound `C/C(=N\NC(=O)c1nnn(-c2nonc2N)c1-c1cccs1)c1ccncc1`, the concentration at half-maximal activity (AC50) is 1.02 µM.
For `Brc1ccccc1C1=Nn2c(nnc2-c2ccccc2)SC1`, the AC50 was > 30 µM (inactive).
For `CN(c1ccccc1)c1nc(N)c([N+](=O)[O-])c(Nc2ccccc2F)n1`, the AC50 is > 30 µM (inactive).
As for `O=C1N=C(C=c2ccc(=Cc3[nH]c(=O)[nH]c3O)cc2)C(=O)N1`, the figure is 15.5 µM; as for `CC[n+]1c(/C=C/C=C/N(C(C)=O)c2ccccc2)sc2ccccc21`, > 30 µM (inactive).
Next, `Nc1nc(N)nc(-c2cc(F)ccc2O)n1`: 18.9 µM; `COC(=O)C1=C(C)N(CC(C)C)C(=O)/C1=C\c1cccs1`: > 30 µM (inactive).
As for `O=C(NCCCN1CCOCC1)c1ccc(Cl)c([N+](=O)[O-])c1`, the figure is > 30 µM (inactive); as for `COc1cccc(CN2CCN(Cc3cc(OC)c(OC)cc3[N+](=O)[O-])CC2)c1`, > 30 µM (inactive); as for `O=C(COc1ccc(-n2cnnn2)cc1)Nc1ccc(F)c(F)c1F`, > 30 µM (inactive).
Take `COc1ccc2cc(C(N)=O)c(=Nc3ccccc3)oc2c1`: the AC50 is > 30 µM (inactive).
As for `O=S(=O)(O)c1cccc(N=Nc2c(O)ccc3ccccc23)c1`, the figure is 8.34 µM.
As for `CCOc1ccc2ccccc2c1/C=N/n1cncn1`, the figure is > 30 µM (inactive); as for `CCOC(=O)c1cnc2c(C)cc(Cl)cc2c1N1CCN(C)CC1`, > 30 µM (inactive).
As for `O=[N+]([O-])c1cccnc1NCCc1ccccc1`, the figure is > 30 µM (inactive); as for `CCC(Oc1ccccc1)C(=O)N(C)CC(=O)N(CC(C)C)c1c(N)n(CC(C)C)c(=O)[nH]c1=O` (stereo unspecified), > 30 µM (inactive).
As for `COC(=O)c1c(C)c(OC(=O)c2c(C)cc(O)c(C=O)c2O)cc(C)c1O`, the AC50 was > 30 µM (inactive).
As for `CCOC(=O)c1c(NC(=O)CN2C(=O)NC3(CCCCC3C)C2=O)sc(C(=O)N(C)C)c1C` (stereo unspecified), the figure is > 30 µM (inactive); as for `CCOC(=O)c1nnn(-c2nonc2OC)c1-c1ccccc1`, > 30 µM (inactive); as for `O=C(O)c1ccc(Nc2nc(-c3ccccc3)nc3ccccc23)cc1`, > 30 µM (inactive).
Turning to `Cc1ccc2cc(C#N)c(N3CCCN(C(=S)NCCCN(C)C)CC3)nc2c1`, the AC50 is > 30 µM (inactive).
In the case of `O=C(c1ccc(F)cc1)c1cnc(Nc2ccccc2)s1`, the AC50 was > 30 µM (inactive).
As for `O=C(CSc1nc2[nH]ncc2c(=O)n1-c1ccc(Cl)c(Cl)c1)NCc1ccccc1Cl`, the figure is > 30 µM (inactive); as for `COCCCNc1c2c(nc3nnnn13)CCCC2`, > 30 µM (inactive).
As for `CCOc1ccc(-n2c(O)c(C=NCCCn3ccnc3)c(=O)[nH]c2=O)cc1`, the figure is 22.4 µM; as for `COc1ccccc1NC(=O)c1ccc(C(=O)c2ccccc2)o1`, > 30 µM (inactive); as for `O=c1c2ccccc2oc2cc(NCCCn3ccnc3)ccc12`, > 30 µM (inactive).
As for `Cc1cc(C(=O)N/N=C/c2cc(N=Nc3ccccc3)ccc2O)n[nH]1`, the figure is > 30 µM (inactive).
Take `COc1ccc(NC(=O)/C(C#N)=C\C=C\c2ccco2)cc1`: the AC50 was > 30 µM (inactive).
As for `Fc1ccc(C2=Nn3c(nnc3-c3ccco3)SC2)cc1`, the figure is > 30 µM (inactive).
As for `c1ccc(-c2nc3ccccc3[nH]2)cc1`, the figure is > 30 µM (inactive); as for `COc1c2ccccc2c(OC)c2ccccc12`, > 30 µM (inactive); as for `COc1ccc([N+](=O)[O-])cc1NC(=O)CCN1CCN(CCO)CC1`, > 30 µM (inactive).
Regarding `COC(=O)c1ccc(CN2C(=O)NC(CC(C)C)C2=O)cc1` (stereo unspecified), the AC50 was > 30 µM (inactive).
Next, `CCC(C)[C@H](NC(=O)NCc1ccc(Cl)cc1)C(=O)OC` (stereo partly specified): > 30 µM (inactive); `O=c1[nH]c(=S)n(C2CC2)c(O)c1C=NCc1cccnc1`: 28.2 µM; `N#Cc1c(Nc2ccccc2)c(/C=N/NCCO)c[nH]c1=O`: > 30 µM (inactive).
`C/C(=C(/CCO)SSCC1CCCO1)N(C=O)Cc1cnc(C)nc1N` (stereo unspecified): the AC50 was > 30 µM (inactive).
As to `CC(C)CSc1ncnc2c1oc1nc3c(cc12)COC(C)(C)C3`, the AC50 is > 30 µM (inactive).

For the origin of these results see PubChem BioAssay AID463203 (Broad Institute, 2010).
